In US7473688B2, “Indolobenzazepine HCV NS5B inhibitors” (Bristol-Myers Squibb Company, priority 2005, dated 2009):
Like-named read-outs stand apart in the source and are kept apart here.

What was measured:
HCV NS5B = molecular target: T1, HCV NS5B (Hepatitis C virus genotype 1b, UniProt Q9WMX2); assay: HCV NS5B RdRp enzyme assay (preincubation protocol); format: biochemical
T1 construct: The protein was expressed with an 18 amino acid C-terminal truncation to enhance the solubility; made in house; host or cells: E. coli BL21 (DE3), pET21a
T1 sequence (Q9WMX2 2420-2992): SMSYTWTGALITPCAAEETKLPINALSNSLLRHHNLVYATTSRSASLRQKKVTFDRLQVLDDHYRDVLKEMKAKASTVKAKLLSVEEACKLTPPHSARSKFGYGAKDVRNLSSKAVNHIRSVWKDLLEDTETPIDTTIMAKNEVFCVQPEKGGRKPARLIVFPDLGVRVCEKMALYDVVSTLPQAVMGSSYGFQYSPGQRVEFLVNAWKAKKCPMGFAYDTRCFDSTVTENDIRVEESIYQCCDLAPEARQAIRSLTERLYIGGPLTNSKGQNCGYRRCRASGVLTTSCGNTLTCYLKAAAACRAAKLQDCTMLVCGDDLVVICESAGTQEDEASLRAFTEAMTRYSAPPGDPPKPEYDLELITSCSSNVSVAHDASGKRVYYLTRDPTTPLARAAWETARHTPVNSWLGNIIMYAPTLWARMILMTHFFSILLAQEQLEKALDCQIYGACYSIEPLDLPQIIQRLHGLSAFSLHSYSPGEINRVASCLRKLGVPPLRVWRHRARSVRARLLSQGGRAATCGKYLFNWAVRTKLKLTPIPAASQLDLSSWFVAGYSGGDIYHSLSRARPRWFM
Outline: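 C-terminally truncated (Δ18) genotype 1b NS5B from E. coli, 14 nM, added to compound, then polyA template (0.2 nM), 3H-UTP (0.29 μM) and oligo-dT12 primer precaptured on streptavidin SPA beads. 4 h at 30 °C, pH 7.5, 2% DMSO; SPA readout; IC50 from seven concentrations by logistic fit.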

HCV replicon = HCV replicon FRET assay; format: cell-based; settings: Hepatitis C virus, FRET assay, read-out: EC50*
Outline: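 HCV replicon cells, with or without Renilla luciferase reporter, incubated with titrated compounds at 37 °C; Alamar blue read for cytotoxicity. NS3 protease activity read from lysates with 20 μM EDANS/DABCYL FRET peptide (340/490 nm, kinetic), or by Dual-Glo luciferase. Background from highest protease-inhibitor wells; EC50 = 50% signal reduction.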

Compound	IC50 (HCV NS5B; Table 1b, read-out: IC50*)	EC50 (HCV replicon; Table 1b)	IC50 (HCV NS5B; Table 1, read-out: IC50*)	EC50 (HCV replicon; Table 1)	further results
COc1ccc2c(c1)C=C(C(=O)N1CCN(CCOCCO)CC1)Cn1c-2c(C2CCCCC2)c2ccc(C(=O)NS(=O)(=O)N(C)C)cc21	0.02 to 1 µM	0.03 to 1 µM			
COc1ccc2c(c1)CC(C(=O)N1CC(N(C)C)C1)Cn1c-2c(C2CCCCC2)c2ccc(C(=O)NS(=O)(=O)N(C)C)cc21 (stereo not shown)	0.02 to 1 µM	0.03 to 1 µM			
COc1ccc2c(c1)C=C(C(=O)O)Cn1c-2c(C2CCCCC2)c2ccc(C(=O)NS(=O)(=O)N3CCN(C(C)=O)CC3)cc21	0.02 to 1 µM	> 10 µM			
COc1ccc2c(c1)C=C(C(=O)N[C@@H]1C3CCC(C)([C@@H]1O)C3(C)C)Cn1c-2c(C2CCCCC2)c2ccc(C(=O)NS(=O)(=O)N(C)C)cc21 (stereo partly shown)	0.02 to 1 µM	0.03 to 1 µM			
COc1ccc2c(c1)C=C(C(=O)N1CCN(c3ccccn3)CC1)Cn1c-2c(C2CCCCC2)c2ccc(C(=O)NS(=O)(=O)N(C)C)cc21	0.02 to 1 µM	0.03 to 1 µM			
COc1ccc2c(c1)C=C(C(=O)N1CCN(c3ncccn3)CC1)Cn1c-2c(C2CCCCC2)c2ccc(C(=O)NS(=O)(=O)N(C)C)cc21	< 0.02 µM	0.03 to 1 µM			
COc1ccc2c(c1)CC(C(=O)N1CCN(CCOCCO)CC1)Cn1c-2c(C2CCCCC2)c2ccc(C(=O)NS(=O)(=O)N(C)C)cc21 (stereo not shown)	0.02 to 1 µM	0.03 to 1 µM			
COc1ccc2c(c1)C=C(C(=O)N1CCN(C(=O)C(C)(C)O)CC1)Cn1c-2c(C2CCCCC2)c2ccc(C(=O)NS(=O)(=O)N(C)C)cc21	0.02 to 1 µM	0.03 to 1 µM			
CON(C)S(=O)(=O)NC(=O)c1ccc2c(C3CCCCC3)c3n(c2c1)CC(C(=O)N1CCOCC1)=Cc1ccccc1-3 [drawing 100]			0.01 to 1 µM	0.07 to 1 µM	
COc1ccc2c(c1)C=C(C(=O)N1CCOCC1)Cn1c-2c(C2CCCCC2)c2ccc(C(=O)NS(=O)(=O)N3CCOCC3)cc21 [drawing 102]			0.01 to 1 µM	0.07 to 1 µM	
C[C@@H]1CN(CCNC(=O)C2=Cc3ccccc3-c3c(C4CCCCC4)c4ccc(C(=O)NS(=O)(=O)N(C)C)cc4n3C2)C[C@H](C)O1 [drawing 130]			0.01 to 1 µM	0.07 to 1 µM	
CN(C)S(=O)(=O)NC(=O)c1ccc2c(C3CCCCC3)c3n(c2c1)CC(C(=O)N1CCC(N2CCOCC2)CC1)=Cc1cc(OCc2ccccc2)ccc1-3 [drawing 135]			0.01 to 1 µM	0.07 to 1 µM	
CN(C)S(=O)(=O)NC(=O)c1ccc2c(C3CCCCC3)c3n(c2c1)CC(C(=O)N1CCCC(=O)N1)=Cc1ccccc1-3 [drawing 138]			0.01 to 1 µM	0.07 to 1 µM	
CN(C)S(=O)(=O)NC(=O)c1ccc2c(C3CCCCC3)c3n(c2c1)CC(NC(=O)N1CCOCC1)Cc1ccccc1-3 (stereo not shown) [drawing 141]			0.01 to 1 µM	0.07 to 1 µM	
C[C@@H]1CN(C(=O)NC2Cc3ccccc3-c3c(C4CCCCC4)c4ccc(C(=O)O)cc4n3C2)C[C@H](C)O1 (stereo partly shown) [drawing 143]			0.01 to 1 µM	0.07 to 1 µM	
CC(=O)NN(C)C(=O)C1=Cc2ccccc2-c2c(C3CCCCC3)c3ccc(C(=O)O)cc3n2C1 [drawing 154]			0.01 to 1 µM	1 to 10 µM	
COc1ccc2c(c1)C=C(C(=O)N(C)CC(=O)N(C)C)Cn1c-2c(C2CCCCC2)c2ccc(C(=O)NS(=O)(=O)N(C)C)cc21 [drawing 162]			0.01 to 1 µM	0.07 to 1 µM	
CN(C)S(=O)(=O)NC(=O)c1ccc2c(C3CCCCC3)c3n(c2c1)CC(C(=O)N1CCC(F)CC1)=Cc1ccccc1-3 [drawing 196]			0.01 to 1 µM	0.07 to 1 µM	
O=C(NCc1cnn[nH]1)c1ccc2c(C3CCCCC3)c3n(c2c1)CC(C(=O)N1CCC(N2CCOCC2)CC1)=Cc1ccccc1-3 [drawing 203]			0.01 to 1 µM	1 to 10 µM	
CN(C)S(=O)(=O)NC(=O)c1ccc2c(C3CCCCC3)c3n(c2c1)CC(C(=O)N1CCCC(=O)N1)=Cc1ccccc1-3 [drawing 236]					IC50 (HCV NS5B; Table 1a, read-out: IC50*): 0.01 to 1 µM; EC50 (HCV replicon; Table 1a): 0.03 to 1 µM
COc1ccc2c(c1)C=C(C(=O)N1CCOCC1)Cn1c-2c(C2CCCCC2)c2ccc(C(=O)NS(=O)(=O)N3CCOCC3)cc21 [drawing 237]					IC50 (HCV NS5B; Table 1a, read-out: IC50*): 0.01 to 1 µM; EC50 (HCV replicon; Table 1a): 0.03 to 1 µM
COc1ccc2c(c1)C=C(C(=O)N(C)CC(=O)N(C)C)Cn1c-2c(C2CCCCC2)c2ccc(C(=O)NS(=O)(=O)N(C)C)cc21 [drawing 238]					IC50 (HCV NS5B; Table 1a, read-out: IC50*): 0.01 to 1 µM; EC50 (HCV replicon; Table 1a): 0.03 to 1 µM
COc1ccc2c(c1)C=C(C(=O)N1CCN(CC(F)(F)F)CC1)Cn1c-2c(C2CCCCC2)c2ccc(C(=O)NS(=O)(=O)N(C)C)cc21 [drawing 390]					IC50 (HCV NS5B; Table 1a, read-out: IC50*): 0.01 to 1 µM; EC50 (HCV replicon; Table 1a): 0.03 to 1 µM
O=C(NS(=O)(=O)N1CCN(CC(F)(F)F)CC1)c1ccc2c(C3CCCCC3)c3n(c2c1)CC(C(=O)N1CCOCC1)=Cc1ccccc1-3 [drawing 391]					IC50 (HCV NS5B; Table 1a, read-out: IC50*): 0.01 to 1 µM; EC50 (HCV replicon; Table 1a): 0.03 to 1 µM
COc1ccc2c(c1)C=C(C(=O)N1CCN(CC(F)(F)F)CC1)Cn1c-2c(C2CCCCC2)c2ccc(C(=O)NS(=O)(=O)N(C)C)cc21 [drawing 393]	0.02 to 1 µM	0.03 to 1 µM			
O=C(NS(=O)(=O)N1CCN(CC(F)(F)F)CC1)c1ccc2c(C3CCCCC3)c3n(c2c1)CC(C(=O)N1CCOCC1)=Cc1ccccc1-3 [drawing 395]	0.02 to 1 µM	0.03 to 1 µM			
